ChEMBL document CHEMBL1201862, “PubChem BioAssay data set” (2004)
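Interpolation was linear, between the two tested concentrations surrounding the appropriate level; five concentrations were tested over 48 hours in 96-well plates. GI50 marks 50% less growth.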 Activity calls are given as the source filed them. Rule as the data show it: active = GI50 up to about 1.1 µM and inactive = higher.

Columns and labels:
Assay in all cases: inhibition of tumour cell growth, NCI panel, 48 h
U-251 = test system: U-251
HL-60 = test system: HL-60
NCI-H23 = test system: NCI-H23
NCI-H226 = test system: NCI-H226
UO-31 = test system: UO-31
BT-549 = test system: BT-549
SF-539 = test system: SF-539
SF-295 = test system: SF-295
HCT-116 = test system: HCT-116
SF-268 = test system: SF-268
PC-3 = test system: PC-3
UACC-62 = test system: UACC-62
HT-29 = test system: HT-29
M14 = test system: M14
A549 = test system: A549
RPMI-8226 = test system: RPMI-8226
CCRF-CEM = test system: CCRF-CEM
RXF 393 = test system: RXF 393
SNB-75 = test system: SNB-75
HOP-62 = test system: HOP-62
CAKI-1 = test system: CAKI-1
DU-145 = test system: DU-145
SNB-19 = test system: SNB-19
MDA-MB-435 = test system: MDA-MB-435
OVCAR-4 = test system: OVCAR-4
SK-OV-3 = test system: SK-OV-3
SK-MEL-28 = test system: SK-MEL-28
A498 = test system: A498
K562 = test system: K562
SW-620 = test system: SW-620
KM12 = test system: KM12
NCI/ADR-RES = test system: NCI/ADR-RES
OVCAR-8 = test system: OVCAR-8
IGROV-1 = test system: IGROV-1
SN12C = test system: SN12C
ACHN = test system: ACHN
786-0 = test system: 786-0
Hs-578T = test system: Hs-578T
MDA-N = test system: MDA-N
EKVX = test system: EKVX
MOLT-4 = test system: MOLT-4
T47D = test system: T47D
NCI-H460 = test system: NCI-H460
HOP-92 = test system: HOP-92
MDA-MB-231 = test system: MDA-MB-231
SK-MEL-5 = test system: SK-MEL-5
SR = test system: SR
SK-MEL-2 = test system: SK-MEL-2
OVCAR-5 = test system: OVCAR-5
NCI-H522 = test system: NCI-H522
LOX IMVI = test system: LOX IMVI
OVCAR-3 = test system: OVCAR-3
UACC-257 = test system: UACC-257
TK-10 = test system: TK-10
COLO 205 = test system: COLO 205
HCT-15 = test system: HCT-15
Malme-3M = test system: Malme-3M
MCF7 = test system: MCF7

**Q.** Which GI50 (U-251) does the source give for `COc1cc2c(cc1OC)C(CCN)=NCC2` here?
**A.** 16.4 µM (inactive)

**Q.** What about the GI50 (HL-60) of the same molecule?
**A.** 0.839 µM (active)

**Q.** And the GI50 (NCI-H23)?
**A.** 13.1 µM (inactive)

**Q.** What about the GI50 (NCI-H226) of the same molecule?
**A.** > 46.1 µM (inactive)

**Q.** And the GI50 (UO-31)?
**A.** 1.77 µM (inactive)

**Q.** What about the GI50 (BT-549) of the same molecule?
**A.** 19.1 µM (inactive)

**Q.** And the GI50 (SF-539)?
**A.** 6.75 µM (inactive)

**Q.** And the GI50 (SF-295)?
**A.** > 100 µM (inactive)

**Q.** What about the GI50 (HCT-116) of the same molecule?
**A.** 18.4 µM (inactive)

**Q.** And the GI50 (SF-268)?
**A.** 19.5 µM (inactive)

**Q.** And the GI50 (PC-3)?
**A.** 16 µM (inactive)

**Q.** What about the GI50 (UACC-62) of the same molecule?
**A.** 18.2 µM (inactive)

**Q.** And the GI50 (HT-29)?
**A.** 20.2 µM (inactive)

**Q.** And the GI50 (M14)?
**A.** 17.2 µM (inactive)

**Q.** And the GI50 (A549)?
**A.** 31.6 µM (inactive)

**Q.** What about the GI50 (RPMI-8226) of the same molecule?
**A.** 5.33 µM (inactive)

**Q.** What about the GI50 (CCRF-CEM) of the same molecule?
**A.** 2.19 µM (inactive)

**Q.** What about the GI50 (RXF 393) of the same molecule?
**A.** 15.7 µM (inactive)

**Q.** What about the GI50 (SNB-75) of the same molecule?
**A.** 18.5 µM (inactive)

**Q.** And the GI50 (HOP-62)?
**A.** 21.1 µM (inactive)

**Q.** And the GI50 (CAKI-1)?
**A.** 12.6 µM (inactive)

**Q.** And the GI50 (DU-145)?
**A.** 17.9 µM (inactive)

**Q.** And the GI50 (SNB-19)?
**A.** 41.4 µM (inactive)

**Q.** What about the GI50 (MDA-MB-435) of the same molecule?
**A.** 16.5 µM (inactive)

**Q.** And the GI50 (OVCAR-4)?
**A.** 21.2 µM (inactive)

**Q.** And the GI50 (SK-OV-3)?
**A.** > 76.7 µM (inactive)

**Q.** What about the GI50 (SK-MEL-28) of the same molecule?
**A.** 18.4 µM (inactive)

**Q.** What about the GI50 (A498) of the same molecule?
**A.** 26.9 µM (inactive)

**Q.** What about the GI50 (K562) of the same molecule?
**A.** 11.2 µM (inactive)

**Q.** And the GI50 (SW-620)?
**A.** 5 µM (inactive)

**Q.** What about the GI50 (KM12) of the same molecule?
**A.** 19 µM (inactive)

**Q.** What about the GI50 (NCI/ADR-RES) of the same molecule?
**A.** 27.4 µM (inactive)

**Q.** And the GI50 (OVCAR-8)?
**A.** 18.2 µM (inactive)

**Q.** And the GI50 (IGROV-1)?
**A.** 22.6 µM (inactive)

**Q.** What about the GI50 (SN12C) of the same molecule?
**A.** 19 µM (inactive)

**Q.** What about the GI50 (ACHN) of the same molecule?
**A.** 16.6 µM (inactive)

**Q.** And the GI50 (786-0)?
**A.** 5.08 µM (inactive)

**Q.** What about the GI50 (Hs-578T) of the same molecule?
**A.** 27.7 µM (inactive)

**Q.** What about the GI50 (MDA-N) of the same molecule?
**A.** 15.8 µM (inactive)

**Q.** And the GI50 (EKVX)?
**A.** 23.1 µM (inactive)

**Q.** And the GI50 (MOLT-4)?
**A.** 17.1 µM (inactive)

**Q.** What about the GI50 (T47D) of the same molecule?
**A.** 8.32 µM (inactive)

**Q.** And the GI50 (NCI-H460)?
**A.** > 59.2 µM (inactive)

**Q.** What about the GI50 (HOP-92) of the same molecule?
**A.** 6.82 µM (inactive)

**Q.** What about the GI50 (MDA-MB-231) of the same molecule?
**A.** 16.6 µM (inactive)

**Q.** And the GI50 (SK-MEL-5)?
**A.** 20 µM (inactive)

**Q.** And the GI50 (SR)?
**A.** 4.58 µM (inactive)

**Q.** And the GI50 (SK-MEL-2)?
**A.** 17.4 µM (inactive)

**Q.** What about the GI50 (OVCAR-5) of the same molecule?
**A.** > 42.6 µM (inactive)

**Q.** What about the GI50 (NCI-H522) of the same molecule?
**A.** 3.82 µM (inactive)

**Q.** And the GI50 (LOX IMVI)?
**A.** 18.8 µM (inactive)

**Q.** What about the GI50 (OVCAR-3) of the same molecule?
**A.** 18 µM (inactive)

**Q.** And the GI50 (UACC-257)?
**A.** 17.9 µM (inactive)

**Q.** What about the GI50 (TK-10) of the same molecule?
**A.** 10.2 µM (inactive)

**Q.** What about the GI50 (COLO 205) of the same molecule?
**A.** 14.3 µM (inactive)

**Q.** What about the GI50 (HCT-15) of the same molecule?
**A.** 19.6 µM

**Q.** What about the GI50 (Malme-3M) of the same molecule?
**A.** 18.8 µM (inactive)

**Q.** What about the GI50 (MCF7) of the same molecule?
**A.** 18.2 µM (inactive)
